Columns and labels:
SCID mouse cortex = experiment: Tumor incidence after injection of hESC-derived NKX2.1-GFP+ cells into newborn SCID mouse cortex; type: in vivo
Method: Excess medium was removed from sorted cell pellets to create concentrated cell suspensions of 1000 cells/nl. Cells were loaded into a beveled glass micropipette (Wiretrol 5 ul, Drummond Scientific Company) mounted on a stereotactic hydraulic injector. P2 CB.17-SCID pups (Charles River) were anesthetized through hypothermia and positioned in a clay head mold on the injector platform. 10-100,000 cells per injection site were delivered transcranially into the right cerebral cortex using the following coordinates: 0.9 mm from the midline (sagittal sinus), and 2.6 mm from lambda. The depth of injection was 0.45 mm from the skin surface. All transplantation experiments adhered to approved UCSF Institutional Animal Care and Use Committee protocols.
Initially, day 35 monolayer cultures were sorted for NKX2.1-GFP+, without PSANCAM selection, and injected into newborn SCID mouse cortex. However, within 4 months, injected mouse brains (12/12 mice) contained tumor-like overgrowths at the injection site and/or at the pial surface near the injection tract (data not shown). These were not pluripotent cell-derived teratomas; OCT4+ cells or polarized neuroepithelial rosettes were not found. […] But, focal growths (˜1 focus/2500 plated cells, n=3) were occasionally detected in extended co-cultures, consistent with tumor formation in vivo. […]

[1] = test system: HES3 NKX2.1-GFP hESC line with i12b-RFP; experiment: Flow cytometry of NKX2.1-GFP and i12b-RFP double positive cells; type: cell-based, human; settings: B27+5F cultures treated with DAPT
Description: The intergenic DLX½i12b (422) enhancer driving the mCherry RFP reporter gene (i12b-RFP) was delivered into the HES3 NKX2.1-GFP hESC line using lentivirus, and two stable cell lines were generated (#5 and #10) as confirmed by genomic DNA PCR for mCherry. (FIG. 22, F).
The modified lines were differentiated using the B27±5F method, and i12b-RFP expression was detected after three weeks of differentiation, along with NKX2.1. (FIG. 22, G). i12b-RFP+ cells in EBs co-expressed GABAergic neuron marker DLX2 and neuronal marker TUJ1. (FIGS. 22, H and I).
Flow cytometry analysis confirmed that many cells derived with the B27+5F method co-expressed both NKX2.1-GFP and i12b-RFP (FIG. 22, J).

C[C@H](NC(=O)Cc1cc(F)cc(F)c1)C(=O)N[C@H](C(=O)OC(C)(C)C)c1ccccc1 [DAPT]
tumor incidence (SCID mouse cortex; brief addition of DAPT prior to injection, low-density monolayer culture, 3/9 mice): 33% | in vivo tumor incidence (SCID mouse cortex; day 35 cultures pretreated with DAPT and FACS-sorted for both NKX2.1-GFP+ and PSA-NCAM+ cells): 0/6 | double positive (NKX2.1-GFP and i12b-RFP) population of MGE derived interneurons [1]: marked increase
